# Test results reported in ChEMBL document CHEMBL3779893, “Identification of novel GLUT inhibitors” (Bioorg Med Chem Lett, 2016).
# pIC50: −log10 of the molar value.
# Key:
# [1] = target: T1, Solute carrier family 2, facilitated glucose transporter member 1 (Homo sapiens, UniProt P11166); assay: Inhibition of human GLUT1 expressed in DLD1 cells assessed as ATP production co-incubated with 100 mM glucose for 16 hrs by CellTiter-Glo assay in presence of oxidative phosphorylation inhibitor rotenone; type: cell-based, DLD-1
# T1 sequence (P11166 whole entry): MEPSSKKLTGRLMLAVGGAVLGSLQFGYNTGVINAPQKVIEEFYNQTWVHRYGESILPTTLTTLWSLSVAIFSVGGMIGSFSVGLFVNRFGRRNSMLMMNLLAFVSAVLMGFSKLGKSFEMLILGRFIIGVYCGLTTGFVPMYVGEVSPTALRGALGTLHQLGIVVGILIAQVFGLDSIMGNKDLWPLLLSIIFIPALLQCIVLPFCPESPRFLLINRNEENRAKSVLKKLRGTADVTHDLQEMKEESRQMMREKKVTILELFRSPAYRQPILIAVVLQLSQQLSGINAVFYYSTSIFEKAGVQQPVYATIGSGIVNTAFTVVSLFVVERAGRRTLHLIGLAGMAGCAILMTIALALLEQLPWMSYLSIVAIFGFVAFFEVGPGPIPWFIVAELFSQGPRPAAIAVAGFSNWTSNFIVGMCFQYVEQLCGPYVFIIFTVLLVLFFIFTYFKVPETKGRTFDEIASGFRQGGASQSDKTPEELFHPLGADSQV
# [2] = target: T2, Solute carrier family 2, facilitated glucose transporter member 3 (Homo sapiens, UniProt P11169); assay: Inhibition of human GLUT3 expressed in GLUT1 knock-out DLD1 cells assessed as ATP production co-incubated with 300 mM glucose for 16 hrs by CellTiter-Glo assay in presence of oxidative phosphorylation inhibitor rotenone; type: cell-based, DLD-1
# T2 sequence (P11169 whole entry): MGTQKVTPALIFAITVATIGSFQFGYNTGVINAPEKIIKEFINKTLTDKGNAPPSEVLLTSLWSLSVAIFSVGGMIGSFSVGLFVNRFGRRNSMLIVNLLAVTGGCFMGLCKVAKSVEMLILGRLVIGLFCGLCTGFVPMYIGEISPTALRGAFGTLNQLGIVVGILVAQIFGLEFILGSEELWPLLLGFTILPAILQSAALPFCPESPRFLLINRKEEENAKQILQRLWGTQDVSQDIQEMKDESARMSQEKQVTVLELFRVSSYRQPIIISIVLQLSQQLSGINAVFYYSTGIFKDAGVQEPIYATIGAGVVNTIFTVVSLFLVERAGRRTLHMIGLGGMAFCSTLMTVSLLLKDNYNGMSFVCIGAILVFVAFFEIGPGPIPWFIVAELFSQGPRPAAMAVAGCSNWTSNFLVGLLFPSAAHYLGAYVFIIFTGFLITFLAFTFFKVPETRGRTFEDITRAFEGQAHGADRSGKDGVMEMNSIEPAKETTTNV
# [3] = target: T3, Solute carrier family 2, facilitated glucose transporter member 2 (Homo sapiens, UniProt P11168); assay: Inhibition of human GLUT2 expressed in CHO cells assessed as ATP production co-incubated with 30 mM fructose for 16 hrs by CellTiter-Glo assay in presence of oxidative phosphorylation inhibitor rotenone; type: cell-based
# T3 sequence (P11168 whole entry): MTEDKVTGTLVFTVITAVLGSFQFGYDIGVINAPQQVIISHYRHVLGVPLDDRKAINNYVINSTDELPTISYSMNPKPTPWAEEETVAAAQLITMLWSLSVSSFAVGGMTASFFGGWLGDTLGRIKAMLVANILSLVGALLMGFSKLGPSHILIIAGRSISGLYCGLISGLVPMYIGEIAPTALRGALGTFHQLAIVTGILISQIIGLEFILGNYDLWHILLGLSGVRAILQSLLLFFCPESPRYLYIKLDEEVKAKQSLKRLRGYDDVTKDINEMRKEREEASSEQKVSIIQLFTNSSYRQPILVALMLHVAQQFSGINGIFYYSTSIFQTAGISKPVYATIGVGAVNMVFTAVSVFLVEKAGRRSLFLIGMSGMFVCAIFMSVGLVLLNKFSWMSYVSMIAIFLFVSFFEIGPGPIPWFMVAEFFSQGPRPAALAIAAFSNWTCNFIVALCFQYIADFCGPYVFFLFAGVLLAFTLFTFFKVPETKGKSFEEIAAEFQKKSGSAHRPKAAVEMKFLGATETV
# [4] = Intrinsic clearance in rat hepatocytes; type: ADME, cell-based, Hepatocyte; conditions: read-out: CLH (converted)
# [5] = Intrinsic clearance in human liver microsomes; type: ADME; conditions: read-out: CLH (converted)
Compound,pIC50 [1],pIC50 [2],pIC50 [3],CLint scaled [4] [mL/min/kg],CLint scaled [5] [mL/min/kg]
COc1ccccc1N1CCN(c2ncnc3c2cnn3-c2cc(F)ccc2OC)CC1,7.52,6.49,6.06,–,–
COc1ccc(N2CCN(c3ncnc4c3cnn4-c3ccccc3)CC2)cc1,5.75,5.75,5.06,–,–
OC1CCCCC1N1CCN(c2ncnc3c2cnn3-c2ccccc2)CC1 (stereo not given),< 5.00,< 5.00,< 5.00,–,–
FC(F)(F)c1ccccc1N1CCN(c2ncnc3c2cnn3-c2ccccc2)CC1,< 5.00,< 5.00,< 5.00,–,–
COc1ccccc1N1CCN(c2ncnc3c2ncn3-c2ccccc2)CC1,7.57,7.19,5.46,–,–
COc1ccccc1N1CCN(c2ncnc3c2cnn3C(C)c2ccccc2)CC1 (stereo not given),6.39,6.02,5.68,–,–
COc1ccccc1N1CCN(c2ncnc3c2cnn3-c2ccccc2)C(C)C1 (stereo not given),6.92,6.32,5.60,–,–
COc1ccccc1N1CCN(c2nnnc3c2cnn3-c2ccccc2)CC1,< 5.00,< 5.00,< 5.00,–,–
COc1ccccc1N1CCC(c2ncnc3c2cnn3-c2ccccc2)CC1,6.33,5.92,–,–,–
COc1ccccc1N1C[C@H]2C[C@@H]1CN2c1ncnc2c1cnn2-c1ccccc1,< 5.00,< 5.00,< 5.00,–,–
COc1ccccc1N1CCN(c2ncnc3c2cnn3-c2ccccc2C)CC1,8.00,6.60,6.00,–,–
COc1ccccc1N1CCN(c2ncnc3c2cnn3-c2ncccc2F)CC1,7.10,–,5.15,–,–
COc1ccccc1N1CCN(c2ncnc3c2cnn3-c2ccccc2OC)CC1,7.30,6.96,5.92,–,–
COc1ccccc1N1CCN(c2nccc3c2cnn3-c2ccccc2)CC1,5.40,5.70,5.30,–,–
COc1ccccc1N1CCN(c2ncnc3c2[nH]c(=O)n3-c2ccccc2)CC1,7.28,6.20,< 5.00,–,–
COc1ccccc1N1CCN(c2ncnc3c2cnn3-c2cc(F)cc(F)c2)CC1,8.10,7.05,< 5.00,–,–
COc1ccccc1N1CCN(c2ncnc3c2cnn3-c2ccccn2)CC1,6.29,6.03,5.10,–,–
COc1ccccc1N1CCN(c2ncnc3c2cnn3-c2ccccc2)CC1C (stereo not given),7.85,6.92,5.85,–,–
COc1ccccc1N1CCN(c2ncnc3c2nnn3-c2ccccc2)CC1,7.31,6.37,5.48,–,–
COc1ccccc1C1CCN(c2ncnc3c2cnn3-c2ccccc2)CC1,5.72,< 5.00,< 5.00,–,–
COc1ccccc1N1CCN(c2ccnc3c2cnn3-c2ccccc2)CC1,6.52,5.40,6.22,–,–
Fc1cccc(N2CCN(c3ncnc4c3cnn4-c3ccccc3)CC2)c1,6.54,6.27,5.92,–,–
COc1ccccc1N1CC2(C1)CN(c1ncnc3c1cnn3-c1ccccc1)C2,5.36,5.66,–,–,–
COc1ccccc1N1C[C@@H]2C[C@H]1CN2c1ncnc2c1cnn2-c1ccccc1,5.64,5.39,< 5.00,–,–
COc1ccc(-n2ncc3c(N4CCN(c5ccccc5OC)CC4)ncnc32)cc1,6.64,6.77,5.59,–,–
Oc1ccccc1N1CCN(c2ncnc3c2cnn3-c2ccccc2)CC1,8.15,7.22,7.22,–,–
FC(F)(F)Oc1ccccc1N1CCN(c2ncnc3c2cnn3-c2ccccc2)CC1,< 5.00,< 5.00,< 5.00,–,–
COc1ccc(-n2ncc3c(N4CCN(c5ccccc5OC)CC4)ncnc32)cn1,7.00,6.47,–,–,–
Fc1ccccc1N1CCN(c2ncnc3c2cnn3-c2ccccc2)CC1,6.57,6.17,5.95,–,–

# Second part, the molecule after the results:
pIC50 [1],pIC50 [2],pIC50 [3],CLint scaled [4] [mL/min/kg],CLint scaled [5] [mL/min/kg],Compound
7.77,6.70,< 5.00,–,–,COc1ccccc1N1CCN(c2ncnc3c2cnn3-c2ccc(C#N)cc2)CC1
8.05,7.22,6.29,–,–,COc1ccncc1N1CCN(c2ncnc3c2cnn3-c2ccccc2)CC1
6.82,6.77,5.77,–,–,COc1cc(C#N)ccc1N1CCN(c2ncnc3c2cnn3-c2ccccc2)CC1
5.92,6.27,< 5.00,–,–,COc1c(C#N)cccc1N1CCN(c2ncnc3c2cnn3-c2ccccc2)CC1
6.64,5.82,–,–,–,COc1cnccc1N1CCN(c2ncnc3c2cnn3-c2ccccc2)CC1
7.77,7.34,< 5.00,–,–,COc1ccccc1N1CCN(c2ncnc3c2cnn3-c2ccc(F)cc2)CC1
5.62,5.00,< 5.00,–,–,COc1c(F)cccc1N1CCN(c2ncnc3c2cnn3-c2ccccc2)CC1
8.40,8.10,7.68,–,–,COc1ccccc1N1CCCN(c2ncnc3c2cnn3-c2ccccc2)CC1
8.00,7.40,< 5.00,–,–,COc1cc(F)ccc1N1CCN(c2ncnc3c2cnn3-c2ccccc2)CC1
6.74,6.17,5.87,–,–,COc1ncccc1N1CCN(c2ncnc3c2cnn3-c2ccccc2)CC1
9.00,8.00,< 5.00,43.3,6.17,COc1ccc(F)cc1N1CCN(c2ncnc3c2cnn3-c2ccccc2)CC1
6.70,6.77,6.05,–,–,COc1cccc(-n2ncc3c(N4CCN(c5ccccc5OC)CC4)ncnc32)c1
7.70,7.30,< 5.00,–,–,COc1ccc(C#N)cc1N1CCN(c2ncnc3c2cnn3-c2ccccc2)CC1
6.96,5.80,5.92,–,–,COc1cccc(F)c1N1CCN(c2ncnc3c2cnn3-c2ccccc2)CC1
7.22,7.15,6.02,–,–,COc1cccnc1N1CCN(c2ncnc3c2cnn3-c2ccccc2)CC1
5.92,5.80,5.36,–,–,COc1ccccc1N1CCN(c2ncnc3c2cnn3-c2ccncc2)CC1
6.12,5.82,5.22,–,–,COc1ccccc1N1CCN(c2ncnc3c2cnn3-c2cccnc2)CC1
6.74,6.49,5.83,–,–,COc1cccc(N2CCN(c3ncnc4c3cnn4-c3ccccc3)CC2)c1
5.74,5.69,5.22,–,–,N#Cc1ccccc1N1CCN(c2ncnc3c2cnn3-c2ccccc2)CC1
7.30,7.02,5.00,–,–,COc1ccccc1N1CCN(c2ncnc3c2cnn3-c2cccc(C)c2)CC1
8.30,7.43,7.00,–,–,COc1ccc(C(N)=O)cc1N1CCN(c2ncnc3c2cnn3-c2ccccc2)CC1
7.41,7.16,6.66,–,–,N#Cc1cccc(N2CCN(c3ncnc4c3cnn4-c3ccccc3)CC2)c1
5.82,5.52,5.00,–,–,COc1ccccc1N1CCN(c2ncnc3c2cnn3-c2ccc(C)cc2)CC1
7.48,6.46,–,–,–,COc1ccccc1N1CCN(c2ncnc3c2cnn3-c2cccc(C#N)c2)CC1
